Experimental findings from ChEMBL document CHEMBL1154020, “Tricyclic indole and dihydroindole derivatives as new inhibitors of soluble guanylate cyclase” (Bioorg Med Chem Lett, 2009) are described below.

Activity calls are given as the source filed them. The rule behind the calls is not given here.

The species named for test [1] is Rattus norvegicus. Kind of test: Inhibition of soluble guanylate cyclase in rat aortic smooth muscle cells assessed as decrease in cGMP production at 100 uM after 30 mins by enzyme immunoassay.
The species named for test [2] is Rattus norvegicus. Kind of test: Inhibition of soluble guanylate cyclase in rat aortic smooth muscle cells assessed as decrease in SNP-induced cGMP production pretreated 30 min before SNP challenge by enzyme immunoassay.
For test [3], the species on record is Rattus norvegicus. Kind of test: Inhibition of particulate guanylate cyclase in rat aortic smooth muscle cells assessed as decrease in ANF-induced cGMP production at 100 uM pretreated 30 min before ANF challenge by enzyme immunoassay.
The species entered for test [4] is Rattus norvegicus. As to the kind of experiment: Inhibition of soluble guanylate cyclase in rat aortic smooth muscle cells assessed as decrease in SNP-induced cGMP production at 100 uM pretreated 30 min before SNP challenge by enzyme immunoassay.
Test [5] is filed under the species Rattus norvegicus. As to the kind of experiment: Inhibition of soluble guanylate cyclase in rat aortic smooth muscle cells assessed as decrease in SNP-induced cGMP production at 1 uM pretreated 30 min before SNP challenge by enzyme immunoassay.

As for `CCOCn1ccc2c3oncc3ccc21`, the outcome in the test listed under Rattus norvegicus [1] and in the test listed under Rattus norvegicus [3] was inactive. The Activity entry in the test listed under Rattus norvegicus [2] is “Dose-dependent effect”.

For `CCOCn1ccc2c1CCc1cnoc1-2`, the result in the test filed under Rattus norvegicus [4] was Active. The result in the test listed under Rattus norvegicus [5] was inactive.

For the compound `CCOCn1ccc2c1CCc1cnn(-c3ccccc3)c1-2`, in the test filed under Rattus norvegicus [4], the result was Active.

With `CCOCn1ccc2c1CCc1cnn(C)c1-2`, the result in the test listed under Rattus norvegicus [4] and in the test listed under Rattus norvegicus [5] was Active.
